In one test the target is T1, human V2 receptor (Homo sapiens, UniProt P30518).
T1 construct: expressed in transfected cells; host or cells: CHO K1 (ATCC) expressing firefly luciferase under a CRE-responsive promoter
The test is described as follows: Cellular in vitro assay for determining vasopressin receptor activity (V2, CRE-luciferase). The settings on record: CHO cell line transfected with human V2 receptor; [Arg8]-vasopressin at EC50 concentration; read-out: IC50 hV2. Type of test: cell-based. On the procedure: (§1) B-1. Cellular In Vitro Assay for Determining Vasopressin Receptor Activity
(§2) The identification of agonists and antagonists of the V1a and V2 vasopressin receptors from humans, rats and dogs as well as the quantification of the activity of the compounds of the invention is carried out using recombinant cell lines. These cell lines originally derive from a hamster's ovary epithelial cell (Chinese Hamster Ovary, CHO K1, ATCC: American Type Culture Collection, Manassas, Va. 20108, USA). The test cell lines constitutively express the human, rat or dog V1a or V2 receptors. In case of the Gαq-coupled V1a receptors, cells are also stably transfected with a modified form of the calcium-sensitive photoproteins aequorin (human and rat V1a) or obelin (dog V1a), which, after reconstitution with the cofactor coelenterazine, emit light when there are increases in free calcium concentrations [Rizzuto R, Simpson A W, Brini M, Pozzan T, Nature 358, 325-327 (1992); Illarionov B A, Bondar V S, Illarionova V A, Vysotski E S, Gene 153 (2), 273-274 (1995)]. The resulting vasopressin receptor cells react to stimulation of the recombinantly expressed V1a receptors by intracellular release of calcium ions, which can be quantified by the resulting photoprotein luminescence. The Gs-coupled V2 receptors are stably transfected into cell lines expressing the gene for firefly luciferase under control of a CRE-responsible promoter. Activation of V2 receptors induces the activation of the CRE-responsive promoter via cAMP increase, thereby inducing the expression of firefly luciferase. The light emitted by photoproteins of V1a cell lines as well as the light emitted by firefly luciferase of V2 cell lines corresponds to the activation or inhibition of the respective vasopressin receptor. The bioluminescence of the cell lines is detected using a suitable luminometer [Milligan G, Marshall F, Rees S, Trends in Pharmacological Sciences 17, 235-237 (1996)].
Vasopressin V2 Receptor Cell Lines:
On the day before the assay, the cells are plated out in culture medium (DMEM/F12, 2% FCS, 2 mM glutamine, 10 mM HEPES) in 384-well microtiter plates and kept in a cell incubator (96% humidity, 5% v/v CO2, 37° C.). On the day of the assay, test compounds in various concentrations and the agonist [Arg^8]-vasopressin at EC50 concentration are added together to the wells, and plates are incubated for 3 hours in a cell incubator. Upon addition of the cell lysis reagent Triton™ and the substrate luciferin, luminescence of firefly luciferase is measured in a luminometer.
(§3) Table 1A below lists individual IC50 values for the compounds of the invention (including racemic mixtures as well as separated enantiomers) that were obtained from cell lines transfected with the human V1a or V2 receptor: […]

The next test deals with T2, human V1a receptor (Homo sapiens, UniProt P37288).
T2 construct: expressed in transfected cells; host or cells: CHO K1 (ATCC), also stably transfected with a modified aequorin
T2 sequence (P37288 whole entry): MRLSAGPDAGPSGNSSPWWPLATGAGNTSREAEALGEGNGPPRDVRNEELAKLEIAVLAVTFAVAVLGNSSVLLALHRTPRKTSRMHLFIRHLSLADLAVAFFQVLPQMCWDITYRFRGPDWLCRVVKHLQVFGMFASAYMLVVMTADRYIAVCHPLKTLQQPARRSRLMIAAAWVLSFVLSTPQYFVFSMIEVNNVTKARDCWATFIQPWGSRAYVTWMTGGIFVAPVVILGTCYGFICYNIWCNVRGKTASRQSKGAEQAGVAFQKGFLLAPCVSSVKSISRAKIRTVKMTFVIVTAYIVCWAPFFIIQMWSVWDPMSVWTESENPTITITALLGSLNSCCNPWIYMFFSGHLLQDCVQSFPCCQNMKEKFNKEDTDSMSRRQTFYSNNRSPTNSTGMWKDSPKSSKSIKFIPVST
The experiment in a line: Cellular in vitro assay for determining vasopressin receptor activity (V1a, aequorin luminescence). The format is cell-based. The settings on record: for IC50: CHO cell line transfected with human V1a receptor, [Arg8]-vasopressin at EC50 concentration, read-out: IC50 hV1a; for ratio IC50 hV2/hV1a: selectivity ratio IC50 hV2 / IC50 hV1a. The procedure:
as §1, §2
Vasopressin V1a Receptor Cell Lines:
On the day before the assay, the cells are plated out in culture medium (DMEM/F12, 2% FCS, 2 mM glutamine, 10 mM HEPES, 5 μg/ml coelenterazine) in 384-well microtiter plates and kept in a cell incubator (96% humidity, 5% v/v CO2, 37° C.). On the day of the assay, test compounds in various concentrations are placed for 10 minutes in the wells of the microtiter plate before the agonist [Arg^8]-vasopressin at EC50 concentration is added. The resulting light signal is measured immediately in a luminometer.
as §3

Data on 16 molecules can be found in patent US10526314B2, “Hydroxyalkyl-substituted heteroaryltriazole derivatives and uses thereof” (BAYER AKTIENGESELLSCHAFT, priority 2016, dated 2020).

The term IC50 denotes the concentration that gives 50% inhibition.

T1 sequence (P30518 whole entry): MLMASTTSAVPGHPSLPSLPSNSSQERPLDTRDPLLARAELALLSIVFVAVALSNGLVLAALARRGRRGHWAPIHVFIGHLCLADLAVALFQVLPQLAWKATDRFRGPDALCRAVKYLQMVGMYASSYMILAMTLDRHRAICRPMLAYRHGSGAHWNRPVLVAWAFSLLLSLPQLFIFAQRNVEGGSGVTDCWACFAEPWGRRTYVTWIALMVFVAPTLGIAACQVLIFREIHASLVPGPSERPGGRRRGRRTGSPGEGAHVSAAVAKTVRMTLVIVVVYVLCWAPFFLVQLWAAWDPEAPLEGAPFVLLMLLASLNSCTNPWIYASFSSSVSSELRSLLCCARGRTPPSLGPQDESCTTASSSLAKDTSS

As for `C[C@@H](O)c1nc(Cn2nc(-c3ccc(Cl)cc3)n(C[C@H](O)C(F)(F)F)c2=O)nn1-c1cnccc1Cl` [Example 1, 5-(4-Chlorophenyl)-2-({1-(4-chloropyridin-3-yl)-5-[(1R)-1-hydroxyethyl]-1H-1,2,4-triazol-3-yl}methyl)-4-[(2S)-3,3,3-trifluoro-2-hydroxypropyl]-2,4-dihydro-3H-1,2,4-triazol-3-one], the IC50 at human V2 receptor was found to be 16 nM; on human V1a receptor, 0.49 nM. At human V1a receptor, the “ratio IC50 hV2/hV1a” value worked out at 32.6.
Turning to `C[C@H](O)c1nc(Cn2nc(-c3ccc(Cl)cc3)n(C[C@H](O)C(F)(F)F)c2=O)nn1-c1cnccc1Cl` [Example 2, 5-(4-Chlorophenyl)-2-({1-(4-chloropyridin-3yl)-5-[(1S)-1-hydroxyethyl]-1H-1,2,4-triazol-3-yl}methyl)-4-[(2S)-3,3,3-trifluoro-2-hydroxypropyl]-2,4-dihydro-3H-1,2,4-triazol-3-one], the IC50 on human V2 receptor was determined as 5.65 nM. Moreover, at human V1a receptor, the IC50 was determined as 0.53 nM and the “ratio IC50 hV2/hV1a” value is 10.7.
`C[C@@H](O)c1nc(Cn2nc(-c3ccc(Cl)cc3)n(C[C@H](O)C(F)(F)F)c2=O)nn1-c1ccncc1Cl` [Example 6, 5-(4-Chlorophenyl)-2-({1-(3-chloropyridin-4-yl)-5-[(1R)-1-hydroxyethyl]-1H-1,2,4-triazol-3-yl}methyl)-4-[(2S)-3,3,3-trifluoro-2-hydroxypropyl]-2,4-dihydro-3H-1,2,4-triazol-3-one]: the IC50 at human V2 receptor is 40.3 nM. At human V1a receptor, the IC50 was 2.35 nM and the “ratio IC50 hV2/hV1a” value is on record as 17.2.
Regarding `C[C@H](O)c1nc(Cn2nc(-c3ccc(Cl)cc3)n(C[C@H](O)C(F)(F)F)c2=O)nn1-c1ncccc1F` [Example 11, 5-(4-Chlorophenyl)-2-({1-(3-fluoropyridin-2-yl)-5-[(1S)-1-hydroxyethyl]-1H-1,2,4-triazol-3-yl}methyl)-4-[(2S)-3,3,3-trifluoro-2-hydroxypropyl]-2,4-dihydro-3H-1,2,4-triazol-3-one], the half-inhibitory concentration (IC50) on human V2 receptor was found to be 22.7 nM. At human V1a receptor, the IC50 worked out at 5.6 nM and the “ratio IC50 hV2/hV1a” value is 4.1.
`C[C@@H](O)c1nc(Cn2nc(-c3ccc(Cl)cc3)n(C[C@H](O)C(F)(F)F)c2=O)nn1-c1ncccc1OC(F)(F)F` [Example 16, 5-(4-Chlorophenyl)-2-({5[(1R)-1hydroxyethyl]-1-[3-(trifluoromethoxy)pyridin-2-yl]-1H-1,2,4-triazol-3yl}methyl)-4-[(2S)-3,3,3-trifluoro-2-hydroxypropyl]-2,4-dihydro-3H-1,2,4-triazol-3-one]: the 50% inhibitory concentration (IC50) at human V2 receptor turned out to be 387 nM. On human V1a receptor, the half-maximal inhibitory concentration (IC50) is 13 nM and the “ratio IC50 hV2/hV1a” value came out at 29.7.
For `COc1nccnc1-n1nc(Cn2nc(-c3ccc(Cl)cc3)n(C[C@H](O)C(F)(F)F)c2=O)nc1[C@H](C)O` [Example 21, 5-(4-Chlorophenyl)-2-({5-[(1S)-1-hydroxyethyl]-1-(3-methoxypyrazin-2-yl)-1H-1,2,4-triazol-3-yl}methyl)-4-[(2S)-3,3,3-trifluoro-2-hydroxypropyl]-2,4-dihydro-3H-1,2,4-triazol-3-one], in that order: 46 nM, 49 nM and 0.9.
For `C[C@H](O)c1nc(Cn2nc(-c3ccc(Cl)cc3)n(C[C@H](O)C(F)(F)F)c2=O)nn1-c1ccncc1Cl` [Example 7, 5-(4-Chlorophenyl)-2-({1-(3-chloropyridin-4-yl)-5-[(1S)-1-hydroxyethyl]-1H-1,2,4-triazol-3-yl}methyl)-4-[(2S)-3,3,3-trifluoro-2-hydroxypropyl]-2,4-dihydro-3H-1,2,4-triazol-3-one], in that order: 16 nM, 3 nM and 5.3.
For `CC(O)c1nc(Cn2nc(-c3ccc(Cl)cc3)n(C[C@H](O)C(F)(F)F)c2=O)nn1-c1cccnc1` (single isomer, unassigned) [Example 25], in that order: 240 nM, 90.8 nM and 2.6.
Regarding `CC(O)c1nc(Cn2nc(-c3ccc(Cl)cc3)n(C[C@H](O)C(F)(F)F)c2=O)nn1-c1cncc(Cl)c1` (single isomer, unassigned) [Example 28], on human V2 receptor, the IC50 turned out to be 51.7 nM. In addition, on human V1a receptor, the half-inhibitory concentration (IC50) worked out at 20.6 nM and the “ratio IC50 hV2/hV1a” value came out at 2.5.
With `C[C@@H](O)c1nc(Cn2nc(-c3ccc(Cl)cc3)n(C[C@H](O)C(F)(F)F)c2=O)nn1-c1ncccc1Cl` [Example 5, 5-(4-Chlorophenyl)-2-({1-(3-chloropyridin-2-yl)-5-[(1R)-1-hydroxyethyl]-1H-1,2,4-triazol-3-yl}methyl)-4-[(2S)-3,3,3-trifluoro-2-hydroxypropyl]-2,4-dihydro-3H-1,2,4-triazol-3-one], the 50% inhibitory concentration (IC50) on human V2 receptor is 27 nM. On human V1a receptor, the IC50 came out at 1.35 nM and the “ratio IC50 hV2/hV1a” value was 20.0.
For the molecule `C[C@H](O)c1nc(Cn2nc(-c3ccc(Cl)cc3)n(C[C@H](O)C(F)(F)F)c2=O)nn1-c1ccccn1` [Example 14, 5-(4-Chlorophenyl)-2-({5-[(1S)-1-hydroxyethyl]-1-(pyridin-2-yl)-1H-1,2,4-triazol-3-yl}methyl)-4-[(2S)-3,3,3-trifluoro-2-hydroxypropyl]-2,4-dihydro-3H-1,2,4-triazol-3-one], the concentration for half-maximal inhibition (IC50) on human V2 receptor was 65.5 nM. For the same molecule, on human V1a receptor, the IC50 was 6.45 nM and the “ratio IC50 hV2/hV1a” value was determined as 10.2.
On to `C[C@H](O)c1nc(Cn2nc(-c3ccc(Cl)cc3)n(C[C@H](O)C(F)(F)F)c2=O)nn1-c1ncccc1Cl` [Example 3, 5-(4-Chlorophenyl)-2-({1-(3-chloropyridin-2-yl)-5-[(1S)-1-hydroxyethyl]-1H-1,2,4-triazol-3-yl}methyl)-4-[(2S)-3,3,3-trifluoro-2-hydroxypropyl]-2,4-dihydro-3H-1,2,4-triazol-3-one], for which the values for the concentration for half-maximal inhibition (IC50) on human V2 receptor and at human V1a receptor were 8.07 nM and 0.57 nM, respectively. For the same molecule, the “ratio IC50 hV2/hV1a” value on human V1a receptor stood at 14.2.
Consider `CC(O)c1nc(Cn2nc(-c3ccc(Cl)cc3)n(C[C@H](O)C(F)(F)F)c2=O)nn1-c1cccnc1` (mixture of isomers) [Example 24], for which the IC50 on human V2 receptor was determined as 773 nM; on human V1a receptor it was 49.1 nM. The “ratio IC50 hV2/hV1a” value on human V1a receptor turned out to be 15.8.
As for `C[C@H](O)c1nc(Cn2nc(-c3ccc(Cl)cc3)n(C[C@H](O)C(F)(F)F)c2=O)nn1-c1c(Cl)cncc1Cl` [Example 9, 5-(4-Chlorophenyl)-2-({1-(3,5-dichloropyridin-4-yl)-5-[(1S)-1-hydroxyethyl]-1H-1,2,4-triazol-3-yl}methyl)-4-[(2S)-3,3,3-trifluoro-2-hydroxypropyl]-2,4-dihydro-3H-1,2,4-triazol-3-one], at human V2 receptor, the IC50 amounted to 24.5 nM. Moreover, on human V1a receptor, the concentration for half-maximal inhibition (IC50) came to 4.13 nM and the “ratio IC50 hV2/hV1a” value is 5.9.
For the molecule `C[C@H](O)c1nc(Cn2nc(-c3ccc(Cl)cc3)n(C[C@H](O)C(F)(F)F)c2=O)nn1-c1nccs1` [Example 10, 5-(4-Chlorophenyl)-2-({5-[(1S)-1-hydroxyethyl]-1-(1,3-thiazol-2-yl)-1H-1,2,4-triazol-3-yl}methyl)-4-[(2S)-3,3,3-trifluoro-2-hydroxypropyl]-2,4-dihydro-3H-1,2,4-triazol-3-one], the concentration for half-maximal inhibition (IC50) on human V2 receptor came to 105 nM. At human V1a receptor, the half-inhibitory concentration (IC50) worked out at 4.25 nM and the “ratio IC50 hV2/hV1a” value is 24.7.
`C[C@H](O)c1nc(Cn2nc(-c3ccc(Cl)cc3)n(C[C@H](O)C(F)(F)F)c2=O)nn1-c1nccn1C` [Example 22, 5-(4-Chlorophenyl)-2-({5-[(1S)-1-hydroxyethyl]-1-(1-methyl-1H-imidazol-2-yl)-1H-1,2,4-triazol-3-yl}methyl)-4-[(2S)-3,3,3-trifluoro-2-hydroxypropyl]-2,4-dihydro-3H-1,2,4-triazol-3-one]: the IC50 at human V2 receptor is 138 nM. In addition, on human V1a receptor, the IC50 was determined as 68.1 nM and the “ratio IC50 hV2/hV1a” value is reported as 2.0.
